Laboratory results: US20170050957A1, “4-AMINO-6-(HETEROCYCLIC)PICOLINATES AND 6-AMINO-2-(HETEROCYCLIC)PYRIMIDINE-4-CARBOXYLATES AND THEIR USE AS HERBICIDES” (Dow AgroSciences LLC, priority 2013, published 2017)
Like-named read-outs stand apart in the source and are kept apart here.

How the values were obtained:
[1] = tested on: Key Broadleaf Weed and Crop Species; assay: Post-emergent Test II herbicidal activity (Table 15); format: in vivo; settings: post-emergence, 336 h, 14 d; for pest or weed control at 35 g/ha: 35 g ai/ha; for pest or weed control at 70 g/ha: 70 g ai/ha; for pest or weed control at 140 g/ha: 140 g ai/ha
How it was run: (§1)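 Visual injury rating (0 = none, 100 = complete kill) taken 14 d after treatment, relative to untreated plants. Compounds in acetone/DMSO with crop oil concentrate and Triton X-155 were track-sprayed at 187 L/ha onto seedlings at the first-second true leaf stage.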

[2] = tested on: Key Grass and Sedge Weeds as well as Grass Crops; assay: Post-emergent Test II herbicidal activity (Table 16); format: in vivo; settings: post-emergence, 336 h; for pest or weed control at 35 g/ha: 35 g ai/ha; for pest or weed control at 70 g/ha: 70 g ai/ha; for pest or weed control at 140 g/ha: 140 g ai/ha
How it was run: as §1

[3] = Abutilon theophrasti, velvetleaf (Abutilon theophrasti), read-out: Visual Growth Reduction (%) 14 Days After Application, ABUTH
[4] = Brassica napus, oilseed rape, canola (Brassica napus), read-out: Visual Growth Reduction (%) 14 Days After Application, BRSNN
[5] = Chenopodium album, lambsquarters (Chenopodium album), read-out: Visual Growth Reduction (%) 14 Days After Application, CHEAL
[6] = Euphorbia heterophylla, wild poinsettia (Euphorbia heterophylla), read-out: Visual Growth Reduction (%) 14 Days After Application, EPHHL
[7] = Helianthus annuus, sunflower (Helianthus annuus), read-out: Visual Growth Reduction (%) 14 Days After Application, HELAN
[8] = Cyperus esculentus, yellow nutsedge (Cyperus esculentus), 14 days after application, read-out: Visual Growth Reduction (%) 14 Days After Application CYPES
[9] = Echinochloa crus-galli, barnyardgrass (Echinochloa crus-galli), 14 days after application, read-out: Visual Growth Reduction (%) 14 Days After Application ECHCG
[10] = Oryza sativa, rice (Oryza sativa), 14 days after application, read-out: Visual Growth Reduction (%) 14 Days After Application ORYSA
[11] = Setaria faberi, giant foxtail (Setaria faberi), 14 days after application, read-out: Visual Growth Reduction (%) 14 Days After Application SETFA
[12] = Triticum aestivum, wheat, spring (Triticum aestivum), 14 days after application, read-out: Visual Growth Reduction (%) 14 Days After Application TRZAS
[13] = Zea mays, maize, corn (Zea mays), 14 days after application, read-out: Visual Growth Reduction (%) 14 Days After Application ZEAMX
[14] = Amaranthus retroflexus, redroot pigweed (Amaranthus retroflexus), read-out: Visual Growth Reduction (%) 14 Days After Application, AMARE
[15] = Cyperus esculentus, yellow nutsedge (Cyperus esculentus), 14 d, read-out: Visual Growth Reduction (%) 14 Days After Application, CYPES
[16] = Echinochloa crus-galli, barnyardgrass (Echinochloa crus-galli), 14 d, read-out: Visual Growth Reduction (%) 14 Days After Application, ECHCG
[17] = Oryza sativa, rice (Oryza sativa), 14 d, read-out: Visual Growth Reduction (%) 14 Days After Application, ORYSA
[18] = Setaria faberi, giant foxtail (Setaria faberi), 14 d, read-out: Visual Growth Reduction (%) 14 Days After Application, SETFA
[19] = Triticum aestivum, wheat, spring (Triticum aestivum), 14 d, read-out: Visual Growth Reduction (%) 14 Days After Application, TRZAS
[20] = Zea mays, maize, corn (Zea mays), 14 d, read-out: Visual Growth Reduction (%) 14 Days After Application, ZEAMX

Compound: COC(=O)c1nc(-c2cccc3cn[nH]c23)c(F)c(N)c1Cl [Compound 4.13]
- pest or weed control at 35 g/ha [1, 3]: 0 to 29%
- pest or weed control at 70 g/ha [1, 3]: 0 to 29%
- pest or weed control at 140 g/ha [1, 3]: 0 to 29%
- pest or weed control at 35 g/ha [1, 4]: 0 to 29%
- pest or weed control at 70 g/ha [1, 4]: 0 to 29%
- pest or weed control at 140 g/ha [1, 4]: 0 to 29%
- pest or weed control at 35 g/ha [1, 5]: 0 to 29%
- pest or weed control at 70 g/ha [1, 5]: 0 to 29%
- pest or weed control at 140 g/ha [1, 5]: 60 to 74%
- pest or weed control at 35 g/ha [1, 6]: 0 to 29%
- pest or weed control at 70 g/ha [1, 6]: 0 to 29%
- pest or weed control at 140 g/ha [1, 6]: 0 to 29%
- pest or weed control at 35 g/ha [1, 7]: 0 to 29%
- pest or weed control at 70 g/ha [1, 7]: 0 to 29%
- pest or weed control at 140 g/ha [1, 7]: 0 to 29%
- pest or weed control at 35 g/ha [2, 8]: 0 to 29%
- pest or weed control at 70 g/ha [2, 8]: 0 to 29%
- pest or weed control at 140 g/ha [2, 8]: 0 to 29%
- pest or weed control at 35 g/ha [2, 9]: 0 to 29%
- pest or weed control at 70 g/ha [2, 9]: 0 to 29%
- pest or weed control at 140 g/ha [2, 9]: 0 to 29%
- pest or weed control at 35 g/ha [2, 10]: 0 to 29%
- pest or weed control at 70 g/ha [2, 10]: 0 to 29%
- pest or weed control at 140 g/ha [2, 10]: 0 to 29%
- pest or weed control at 35 g/ha [2, 11]: 0 to 29%
- pest or weed control at 70 g/ha [2, 11]: 0 to 29%
- pest or weed control at 140 g/ha [2, 11]: 0 to 29%
- pest or weed control at 35 g/ha [2, 12]: 0 to 29%
- pest or weed control at 70 g/ha [2, 12]: 0 to 29%
- pest or weed control at 140 g/ha [2, 12]: 0 to 29%
- pest or weed control at 35 g/ha [2, 13]: 0 to 29%
- pest or weed control at 70 g/ha [2, 13]: 0 to 29%
- pest or weed control at 140 g/ha [2, 13]: 0 to 29%
- melting point: 207 to 210 °C

Compound: COC(=O)c1nc(-c2ccc3cc[nH]c3c2F)c(F)c(N)c1OC [Compound 1.20]
- pest or weed control at 35 g/ha [1, 3]: 45 to 59%
- pest or weed control at 70 g/ha [1, 3]: 60 to 74%
- pest or weed control at 140 g/ha [1, 3]: 60 to 74%
- pest or weed control at 35 g/ha [1, 14]: 75 to 84%
- pest or weed control at 70 g/ha [1, 14]: 85 to 94%
- pest or weed control at 140 g/ha [1, 14]: 95 to 100%
- pest or weed control at 35 g/ha [1, 4]: 95 to 100%
- pest or weed control at 70 g/ha [1, 4]: 95 to 100%
- pest or weed control at 140 g/ha [1, 4]: 95 to 100%
- pest or weed control at 35 g/ha [1, 5]: 95 to 100%
- pest or weed control at 70 g/ha [1, 5]: 95 to 100%
- pest or weed control at 140 g/ha [1, 5]: 95 to 100%
- pest or weed control at 35 g/ha [1, 6]: 95 to 100%
- pest or weed control at 70 g/ha [1, 6]: 95 to 100%
- pest or weed control at 140 g/ha [1, 6]: 95 to 100%
- pest or weed control at 35 g/ha [1, 7]: 95 to 100%
- pest or weed control at 70 g/ha [1, 7]: 95 to 100%
- pest or weed control at 140 g/ha [1, 7]: 95 to 100%
- pest or weed control at 35 g/ha [2, 15]: 0 to 29%
- pest or weed control at 70 g/ha [2, 15]: 0 to 29%
- pest or weed control at 140 g/ha [2, 15]: 0 to 29%
- pest or weed control at 35 g/ha [2, 16]: 0 to 29%
- pest or weed control at 70 g/ha [2, 16]: 60 to 74%
- pest or weed control at 140 g/ha [2, 16]: 75 to 84%
- pest or weed control at 35 g/ha [2, 17]: 0 to 29%
- pest or weed control at 70 g/ha [2, 17]: 0 to 29%
- pest or weed control at 140 g/ha [2, 17]: 0 to 29%
- pest or weed control at 35 g/ha [2, 18]: 45 to 59%
- pest or weed control at 70 g/ha [2, 18]: 75 to 84%
- pest or weed control at 140 g/ha [2, 18]: 85 to 94%
- pest or weed control at 35 g/ha [2, 19]: 0 to 29%
- pest or weed control at 70 g/ha [2, 19]: 45 to 59%
- pest or weed control at 140 g/ha [2, 19]: 60 to 74%
- pest or weed control at 35 g/ha [2, 20]: 30 to 44%
- pest or weed control at 70 g/ha [2, 20]: 45 to 59%
- pest or weed control at 140 g/ha [2, 20]: 60 to 74%
- melting point: 203 to 205 °C
